Source: ChEMBL document CHEMBL5634141 (Eur J Med Chem, 2023)
The source made the active and inactive calls. The rule behind the calls is not given here.

Legend:
[1] = test system: NCI-H358; assay: Synergistic antiproliferative activity against human NCI-H358 cells expressing KRAS G12C mutant assessed as combination index at 30 nM incubated for 72 hrs in presence of […] by CCK-8 assay; type: functional
[2] = test system: von Hippel-Lindau disease tumor suppressor/GTPase KRas (Homo sapiens), P01116+P40337 [G12C]; assay: PROTAC activity at VHL/KRAS G12C mutant in human NCI-H358 cells assessed as induction of protein degradation at 100 nM preincubated with AMG510 for 6 hrs followed by compound addition and measured after 48 hrs by Western blotting analysis; type: cell-based
[3] = test system: NCI-H358; assay: Inhibition of colony formation in human NCI-H358 cells expressing KRAS G12C mutant assessed as reduction in cell number at 30 nM incubated for 14 days in presence of linsitinib by crystal violet staining based analysis; type: functional; settings: time 14.0 day
[4] = test system: MIA PaCa-2; assay: Antitumor activity against human MIA PaCa-2 cells xenografted in BALB/c nude mouse assessed as tumor growth inhibition at 30 mg/kg, ip measured after 8 days relative to control; type: functional; settings: MIA PaCa-2, 192 h, time 8 day, read-out: TGI
[5] = test system: NCI-H358; assay: Induction of apoptosis in human NCI-H358 cells assessed as necrotic cells at 300 nM incubated for 48 hrs by Annexin V-FITC staining based flow cytometry analysis (reference value: 1.62 %); type: functional
[6] = test system: MIA PaCa-2; assay: Antiproliferative activity against human MIA PaCa-2 cells expressing KRAS G12C mutant assessed as reduction of cell growth by measuring fold decrease in IC50 incubated for 72 hrs in presence of AZD4573 by CCK-8 assay; type: functional
[7] = test system: MIA PaCa-2; assay: Induction of apoptosis in human MIA PaCa-2 cells assessed as early apoptotic cells at 30 nM incubated for 48 hrs by Annexin V-FITC staining based flow cytometry analysis (reference value: 1.55 %); type: functional
[8] = test system: MIA PaCa-2; assay: Antitumor activity against human MIA PaCa-2 cells xenografted in BALB/c nude mouse assessed as reduction in percentage of KRAS-positive cells at 10 to 30 mg/kg, ip administered for 16 days by immunohistochemical staining analysis; type: functional, organism-based; settings: dose 10-30 mg/kg, time 16.0 day
[9] = test system: NCI-H358; assay: Antiproliferative activity against human NCI-H358 cells expressing KRAS G12C mutant assessed as relative cell viability at 30 nM incubated for 72 hrs in presence of naporafenib by CCK-8 assay; type: functional; settings: read-out: Activity
[10] = test system: NCI-H358; assay: Antiproliferative activity against human NCI-H358 cells expressing KRAS G12C mutant assessed as relative cell viability at 30 nM incubated for 72 hrs in presence of MK-2206 by CCK-8 assay; type: functional; settings: read-out: Activity
[11] = test system: MIA PaCa-2; assay: Induction of cell cycle arrest in human MIA PaCa-2 cells assessed as accumulation of cells at G2/M phase incubated for 48 hrs by propidium iodide staining based flow cytometry analysis; type: functional; settings: dose 30-300 nM
[12] = test system: MIA PaCa-2; assay: Induction of apoptosis in human MIA PaCa-2 cells assessed as early apoptotic cells at 300 nM incubated for 48 hrs by Annexin V-FITC staining based flow cytometry analysis (reference value: 1.55 %); type: functional
[13] = Toxicity in BALB/c nude mouse xenografted with human MIA PaCa-2 cells at 10 to 30 mg/kg, ip measured after 16 days; type: organism-based; settings: in vivo, 384 h, dose 10-30 mg/kg, time 16 day
[14] = test system: NCI-H358; assay: Synergistic antiproliferative activity against human NCI-H358 cells expressing KRAS G12C mutant assessed as combination index at 30 nM incubated for 72 hrs in presence of selumetinib by CCK-8 assay; type: functional
[15] = test system: NCI-H358; assay: Induction of apoptosis in human NCI-H358 cells assessed as late apoptotic cells at 100 nM incubated for 48 hrs by Annexin V-FITC staining based flow cytometry analysis (reference value: 5.20 %); type: functional
[16] = test system: MIA PaCa-2; assay: Antiproliferative activity against human MIA PaCa-2 cells expressing KRAS G12C mutant assessed as reduction of cell growth by measuring fold decrease in IC50 incubated for 72 hrs in presence of SHP099 by CCK-8 assay; type: functional
[17] = test system: MIA PaCa-2; assay: Induction of apoptosis in human MIA PaCa-2 cells assessed as viable cells at 100 nM incubated for 48 hrs by Annexin V-FITC staining based flow cytometry analysis (reference value: 91.5 %); type: functional; settings: read-out: Activity
[18] = biological target: von Hippel-Lindau disease tumor suppressor/GTPase KRas (Homo sapiens, UniProt P01116+P40337, G12C); assay: (§1) PROTAC activity at VHL/KRAS G12C mutant in human MIA PaCa-2 cells assessed as induction of protein degradation by Western blotting analysis; type: cell-based
[19] = test system: von Hippel-Lindau disease tumor suppressor/GTPase KRas (Homo sapiens), P01116+P40337 [G12C]; assay: as §1; type: cell-based
[20] = test system: von Hippel-Lindau disease tumor suppressor/GTPase KRas (Homo sapiens), P01116+P40337 [G12C]; assay: PROTAC activity at VHL/KRAS G12C mutant in human MIA PaCa-2 cells assessed as induction of protein degradation at 100 nM incubated for 48 hrs followed by compound washout by Western blotting analysis; type: cell-based
[21] = test system: MIA PaCa-2; assay: Induction of apoptosis in human MIA PaCa-2 cells assessed as late apoptotic cells at 30 nM incubated for 48 hrs by Annexin V-FITC staining based flow cytometry analysis (reference value: 5.69 %); type: functional
[22] = test system: von Hippel-Lindau disease tumor suppressor/GTPase KRas (Homo sapiens), P01116+P40337 [G12C]; assay: PROTAC activity at VHL/KRAS G12C mutant in human NCI-H358 cells assessed as induction of protein degradation at 100 nM preincubated with MG132 for 6 hrs followed by compound addition and measured after 48 hrs by Western blot analysis; type: cell-based
[23] = test system: NCI-H358; assay: Induction of cell cycle arrest in human NCI-H358 cells assessed as accumulation of cells at G2/M phase incubated for 48 hrs by propidium iodide staining based flow cytometry analysis; type: functional; settings: dose 30-300 nM
[24] = test system: NCI-H358; assay: Synergistic antiproliferative activity against human NCI-H358 cells expressing KRAS G12C mutant assessed as combination index incubated for 72 hrs in presence of SHP099 by CCK-8 assay; type: functional
[25] = Cmax in ICR mouse at 30 mg/kg, ip measured after 24 hrs by LC-MS/MS analysis; type: ADME, organism-based; settings: in vivo
[26] = test system: von Hippel-Lindau disease tumor suppressor/GTPase KRas (Homo sapiens), P01116+P40337 [G12C]; assay: PROTACactivity at VHL/KRAS G12C mutant in human NCI-H358 cells assessed as induction of protein degradation by measuring maximal efficacy incubated for 72 hrs by Western blot analysis relative to control; type: cell-based
[27] = test system: NCI-H358; assay: Induction of apoptosis in human NCI-H358 cells assessed as early apoptotic cells at 30 nM incubated for 48 hrs by Annexin V-FITC staining based flow cytometry analysis (reference value: 1.60 %); type: functional
[28] = test system: von Hippel-Lindau disease tumor suppressor/GTPase KRas (Homo sapiens), P01116+P40337 [G12C]; assay: PROTAC activity at VHL/KRAS G12C mutant in human MIA PaCa-2 cells assessed as induction of protein degradation in presence of AMG510 by Western blotting analysis; type: cell-based
[29] = test system: NCI-H23; assay: Antiproliferative activity against human NCI-H23 cells expressing KRAS G12C mutant assessed as relative cell viability at 30 nM incubated for 72 hrs in presence of infigratinib by CCK-8 assay; type: functional; settings: read-out: Activity
[30] = test system: HepG2; assay: Antiproliferative activity against human HepG2 cells expressing KRAS assessed as inhibition of cell growth incubated for 72 hrs by CCK-8 assay; type: functional, cell-based; settings: HepG2, 72 h
[31] = test system: NCI-H358; assay: Antiproliferative activity against human NCI-H358 cells expressing KRAS G12C mutant assessed as relative cell viability at 30 nM incubated for 72 hrs in presence of daclolisib by CCK-8 assay; type: functional; settings: read-out: Activity

Sequence of von Hippel-Lindau disease tumor suppressor/GTPase KRas (P01116 whole entry G12C, stated change not applied): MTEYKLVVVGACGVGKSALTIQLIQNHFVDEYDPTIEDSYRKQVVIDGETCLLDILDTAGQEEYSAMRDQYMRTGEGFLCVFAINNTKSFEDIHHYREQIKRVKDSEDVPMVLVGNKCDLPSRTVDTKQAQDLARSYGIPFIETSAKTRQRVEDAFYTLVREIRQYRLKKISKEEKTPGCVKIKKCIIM
Sequence of von Hippel-Lindau disease tumor suppressor/GTPase KRas (P40337 whole entry, stated change not applied): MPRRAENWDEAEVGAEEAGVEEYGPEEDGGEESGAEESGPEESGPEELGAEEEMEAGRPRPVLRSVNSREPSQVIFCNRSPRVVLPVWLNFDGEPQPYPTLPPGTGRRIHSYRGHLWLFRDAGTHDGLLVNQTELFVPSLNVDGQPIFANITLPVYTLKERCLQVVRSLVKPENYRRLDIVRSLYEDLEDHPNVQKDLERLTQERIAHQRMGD

C=CC(=O)N1CCN(c2nc(=O)n(-c3c(C)ccnc3C(C)C)c3nc(-c4c(F)cccc4OCC4CCN(CCCC(=O)N[C@H](C(=O)N5C[C@H](O)C[C@H]5C(=O)NCc5ccc(-c6scnc6C)cc5)C(C)(C)C)CC4)c(F)cc23)[C@@H](C)C1
CI [1]: <1
Activity [2]: inactive
inhibition [3]: Active
inhibition in vivo at 30 mg/kg [4]: > 100%
Activity [5]: 1.7%
fold change (FC) [6]: ~9
Activity [7]: 2.66%
Activity [8]: Active
viability at 0.03 µM [9]: 0.36%
viability at 0.03 µM [10]: 0.36%
Activity [11]: Dose-Dependent Effect
Activity [12]: 9.58%
Activity [13]: Non-Toxic
CI [14]: <1
Activity [15]: 10%
fold change (FC) [16]: ~4
viability at 0.1 µM [17]: 75.7%
DC50 [18]: 28 nM
Activity [19]: Dose-Dependent Effect
Activity [20]: Active
Activity [21]: 7.18%
Activity [22]: inactive
Activity [23]: Dose-Dependent Effect
CI [24]: <1
Cmax [25]: 6460 ng/mL
Emax [26]: > 95%
Activity [27]: 3.48%
Activity [28]: inactive
viability at 0.03 µM [29]: 0.41%
IC50 [30]: > 10000 nM
viability at 0.03 µM [31]: 0.29%
